The values that follow come from patent US10111881B2 (priority 2016, dated 2018).

For assay [1], the target named is T1, acetylcholine receptor M1 (Homo sapiens, UniProt P11229).
T1 sequence (P11229 1-460): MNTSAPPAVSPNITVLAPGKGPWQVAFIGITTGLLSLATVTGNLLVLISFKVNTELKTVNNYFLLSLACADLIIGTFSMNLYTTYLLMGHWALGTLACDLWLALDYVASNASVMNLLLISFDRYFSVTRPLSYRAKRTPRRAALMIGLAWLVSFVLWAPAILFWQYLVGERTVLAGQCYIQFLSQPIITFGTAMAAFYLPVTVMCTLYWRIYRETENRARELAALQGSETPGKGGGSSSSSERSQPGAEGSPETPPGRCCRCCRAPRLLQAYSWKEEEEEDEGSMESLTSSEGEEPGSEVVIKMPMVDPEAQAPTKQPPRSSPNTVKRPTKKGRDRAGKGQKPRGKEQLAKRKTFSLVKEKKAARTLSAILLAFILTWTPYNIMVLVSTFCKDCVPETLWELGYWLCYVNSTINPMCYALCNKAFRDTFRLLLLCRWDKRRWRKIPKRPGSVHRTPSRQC
As to conditions: PubChem data; cited from earlier work.

A further assay relates to EEA1-positive vesicles. It counts as cell-based, human.
For assay [2], the system named is EBOV. It counts as cell-based, Zaire Ebolavirus (Mayinga strain).
The next assay has as its system Cathepsin. The assay can be described thus: Cathepsin cleavage of GP.
The subject of the next assay is LAMP1-positive vesicles. The assay is classed as cell-based, human.
In assay [3] the test system is EBOV. The assay can be described thus: microbe, parasite or virus in culture. The conditions noted are these: read-out: Activity in macrophages IC50. The assay is classed as cell-based, Zaire Ebolavirus (Mayinga strain).
The next assay has as its target TDP1 (Homo sapiens, UniProt Q9NUW8). The conditions noted are these: PubChem data; cited from earlier work.
Assay [4] relates to HeLa cells. The assay is classed as cell-based, human.
In assay [5] the test system is EBOV. The assay can be described thus: organism not typed. It counts as cell-based, Zaire Ebolavirus (Mayinga strain).
Assay [6] deals with Baby hamster kidney fibroblasts (BHK) cells. Nature of the assay: Acridine orange assay for acidification blockers. It counts as cell-based.
The target of another assay is T2, NPC1 C-loop (Homo sapiens, UniProt O15118).
T2 construct: C-loop
T2 sequence (O15118 372-620 limits assumed): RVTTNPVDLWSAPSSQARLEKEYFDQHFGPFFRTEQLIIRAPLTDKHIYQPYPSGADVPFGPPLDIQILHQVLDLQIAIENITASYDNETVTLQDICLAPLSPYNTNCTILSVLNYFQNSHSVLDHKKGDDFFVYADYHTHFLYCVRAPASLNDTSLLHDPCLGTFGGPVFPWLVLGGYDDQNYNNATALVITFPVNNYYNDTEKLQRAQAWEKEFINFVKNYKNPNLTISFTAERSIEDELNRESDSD
Nature of the assay: NPC1 C-loop binding.

Assay [7] concerns HeLa cells. The assay is classed as cell-based, human. As to conditions: 50 μM.
The subject of another assay is MARV. Nature of the assay: microbe, parasite or virus in culture. It counts as cell-based, Marburgvirus (Musoke strain).

Where two headings read alike, the source gives them in different places.

Sequence of TDP1 (Q9NUW8 whole entry, species assumed): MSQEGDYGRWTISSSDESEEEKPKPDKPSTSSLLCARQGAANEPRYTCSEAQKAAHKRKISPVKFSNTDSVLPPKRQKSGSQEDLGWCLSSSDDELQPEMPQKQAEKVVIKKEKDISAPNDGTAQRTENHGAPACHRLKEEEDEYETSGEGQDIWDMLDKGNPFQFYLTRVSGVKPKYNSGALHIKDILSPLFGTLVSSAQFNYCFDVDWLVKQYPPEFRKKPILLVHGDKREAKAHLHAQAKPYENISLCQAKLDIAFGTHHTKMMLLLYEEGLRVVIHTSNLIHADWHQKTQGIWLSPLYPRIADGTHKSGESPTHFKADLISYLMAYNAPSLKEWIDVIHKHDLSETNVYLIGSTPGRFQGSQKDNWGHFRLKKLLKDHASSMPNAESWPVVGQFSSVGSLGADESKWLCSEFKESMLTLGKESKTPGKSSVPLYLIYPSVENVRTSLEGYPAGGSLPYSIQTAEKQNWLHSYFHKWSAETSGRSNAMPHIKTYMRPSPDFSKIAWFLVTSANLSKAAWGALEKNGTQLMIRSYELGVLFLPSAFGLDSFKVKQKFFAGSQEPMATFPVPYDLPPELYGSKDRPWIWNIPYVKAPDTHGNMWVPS

As for `CC(C)N1CCN(C(=O)c2ccc(OC3CCN(CCc4ccccc4)CC3)cc2)CC1` [MLS001101371], in assay [1], the “antagonist of acetylcholine receptor M1” value is “identified”. Further, in the assay on EEA1-positive vesicles, the “Effect on EEA1” value is listed as 0 and the “VLP colocalization with EEA1” value is recorded as “colocalized with EEA1 positive vesicles normally”. In the assay on EBOV [2], this molecule gave a Surface interaction of 0 and a Uninfected cell number of 0. Also, the Cathepsin clevage in the assay with Cathepsin worked out at 0. In the assay with LAMP1-positive vesicles, the “Effect on LAMP1” value is “−” and the “reduction of number of VLPs present in LAMP1-positive vesicles” value was found to be 41%. In the assay with EBOV [3], the IC50 came to 24.6 µM. Further, the “antagonist of DNA repair gene TDP1” value at TDP1 was “identified”. Moreover, the “effect on transferrin uptake” value in the assay with HeLa cells [4] is “do not inhibit transferrin uptake”. Further, the Transferrin uptake with HeLa cells [4] (50 μM) came out at 0. Further, in the assay with EBOV [5], the “Curve Class (EBOV)” value came out at 1.3 and the “EBOV (curve class)” value is reported as 1.3. Also, the IC50 with EBOV [5] (read-out: EBOV HeLa IC50) stood at 12.9 µM. Also, in the assay with EBOV [5] (read-out: IC-50 (EBOV)), the IC50 is 12.9 µM. In [6], the “Acidification Block” value was “+”. Moreover, the “NPC1 C-loop binding” value at NPC1 C-loop stood at 0. Also, in the assay with HeLa cells [7], the “Dextran Uptake” value worked out at 0. In the assay on MARV, the “Curve class (MARV)” value was found to be 1.3 and the “MARV (Curve class)” value is recorded as 1.3. For the same molecule, in the assay with MARV (read-out: IC-50 (MARV)), the IC50 is 13 µM. Besides, the IC50 with MARV (read-out: MARV HeLa IC50) amounted to 13 µM.
